According to PMC10044445, “Tuning the Anthranilamide Peptidomimetic Design to Selectively Target Planktonic Bacteria and Biofilm” (Antibiotics, 2023):
Values after ≈ are worked out from the molar mass of the structure shown. Read-outs that look alike come from different tables or passages of the source.

Experiments:
MRC-5 human fibroblasts [1] = test: Toxicity assay, Alamar Blue; assay type: cell-based; conditions: for IC50: MRC5, MRC-5 human fibroblasts, 72 h drug incubation, Alamar Blue
Protocol: Normal human lung fibroblasts MRC-5 were cultured in minimal essential medium (MEM, Invitrogen) supplemented with 10% foetal calf serum (FCS), 1% L-glutamine–penicillin–streptomycin, 2% sodium bicarbonate, 1% non-essential amino acids (NEAA), and 1% sodium pyruvate. The cell line was maintained at 37 °C in 5% CO2 as an adherent monolayer and was passaged upon reaching confluence by standard cell culture techniques. MRC-5 cells were seeded at 2 × 10^4 cells per well in 96-well plates to ensure full confluence (quiescence). Cells were treated for 24 h after seeding with 0.1 to 1000 μM of compounds. After 72 h of drug incubation, the treated media was replaced with fresh media containing 10% Alamar Blue and the cells were incubated for another 6 h. The metabolic activity was detected by spectrophotometric analysis by assessing the absorbance of Alamar blue as previously described by Pasquier et al. Cell proliferation was determined and expressed as a percentage of untreated control cells. The determination of IC50 values was performed using GraphPad Prism 6 (San Diego, CA, USA). Each experiment was performed in triplicate and was repeated in three independent experiments.

E. coli [2] = test: Minimum inhibitory concentration, broth microdilution (CLSI); assay type: cell-based, Escherichia coli; conditions: for MIC / MIC90: Escherichia coli; for MIC: Table 2, lysine derivative versus parent, read-out: MIC E. coli; for MIC90: broth microdilution in MHB, 18–24 h
Protocol: (§1) The antimicrobial activity of the compounds was evaluated by a broth microdilution assay using the procedure described by CLSI. Briefly, bacteria were grown to mid-log phase in Muller Hinton broth (MHB) with shaking at 120 rpm and incubated at 37 °C for 12–16 h. Following incubation, bacteria were washed three times in PBS pH 7.4 at 3500 g for 10 min. After washing, bacteria were diluted with fresh MHB. The turbidity of the bacterial suspensions was adjusted so that OD660nm was 0.1, which gave 1 × 10^8 CFU/mL, and then further diluted to achieve 5 × 10^5 CFU/mL as a final bacterial concentration. Each compound was diluted (250–3.9 µM) through two-fold dilution. Wells in microtiter plates were loaded with 100 µL of inoculum containing 5 × 10^5 CFU/mL bacteria. Wells without any compound and containing only bacteria were used as negative controls (i.e., no inhibition of growth). Wells with media only were set as blank. The microtiter plate was wrapped with paraffin to prevent evaporation and incubated with shaking at 120 rpm and 37 °C for 18–24 h. After incubation, spectrophotometric readings were taken. The well without any bacterial growth and showing zero spectrophotometric reading was regarded as the MIC of the compounds.

E. coli K12 = test: Cytoplasmic membrane permeability (depolarization) assay with DiSC3(5); assay type: cell-based; conditions: 2× MIC
Protocol: (§2) Compounds 13d (series I), 16b (series II), 19a (series III) and 19b (series III) were selected as representative examples of each series with strong antibacterial activities (particularly against S. aureus). As AMPs are known to be membrane-targeting, membrane permeability assays are frequently used to confirm the mode of action of peptidomimetics. In this assay, S. aureus and E. coli were treated with the active compounds in the presence of the membrane potential-sensitive cyanine dye 3,3′-dipropylthiadicarbocyanine iodide (DiSC3(5)). Perturbation of the membrane by the compounds leads to loss of the membrane potential gradient (depolarization), causing the dye to be released into the medium and resulting in an increase in fluorescence intensity.
(§3) The method was adopted from Wu et al. with slight modifications. Bacterial cytoplasmic membrane permeability was determined using membrane potential sensitive dye diSC3-5 (3,3′-dipropylthiadicarbocyanine iodide) which penetrates inside bacterial cells depending on the membrane potential gradient of the cytoplasmic membrane. Bacteria were grown in MHB to mid-log phase by incubating with shaking at 37 °C for 18–24 h. Following incubation, bacteria were washed with 5 mM HEPES containing 20 mM glucose pH 7.2 and resuspended in the same buffer to an OD600 0.05–0.06 which gave 1 × 10^7 CFU/mL. The dye diSC3-5 was added at 4 µM to the bacterial suspension. The suspensions were incubated at room temperature for 1 h in the dark for maximum dye take-up by the bacterial cells. Then, 100 mM KCl was added to balance the K+ outside and inside the bacterial cell to prevent further uptake or outflow of the dye. For Gram-negative bacteria, 0.5 mM EDTA was used to destabilize the lipopolysaccharides-Mg^2+-Ca^2+ complex to help in dye penetration without affecting bacterial growth. A total of 100 µL of bacterial suspension was added to 96-well microtiter plate and with equal volume of antimicrobial compounds. DMSO (20%) was set as a positive control while dye and only bacterial cells were set as a negative control. Fluorescence was measured with a luminescence spectrophotometer at 3 min intervals at an excitation wavelength of 622 nm and an emission wavelength of 670 nm.
(§4) Figure 2 Cytoplasmic membrane depolarization of S. aureus 38 and E. coli K12 by 13d, 16b, 19a, 19b, as assessed by release of the membrane potential-sensitive dye DiSC3(5) measured spectroscopically at λex = 622 nm and λem = 670 nm at 2× MIC concentration. Data are presented as means (±SD) of three independent repeats. 20% DMSO was used as a positive control.

S. aureus biofilms = test: Disruption of established biofilm, crystal violet staining; assay type: cell-based; conditions: 24 h treatment
Protocol: (§5) Bacteria in biofilms are 10–1000 times more resistant to conventional antibiotics than planktonic bacteria. Moreover, biofilms are insensitive to antiseptics and many host immune responses. Since up to 80% of all microbial infections are biofilm-related, an effective antibacterial agent should also be able to disrupt established biofilms to tackle bacterial infections.
(§6) Bacterial cultures (S. aureus and E. coli) were grown in MHB media overnight at 37 °C with shaking at 120 rpm. Cultures were diluted (1:20) in an MHB medium and 200 μL aliquots were dispensed to flat bottom 96-well plate wells (Sarstedt, Mawson Lakes, Australia). Cultures were supplemented with varying concentrations of synthetic compounds dissolved in DMSO. Biofilm was grown in a 96-well plate for 24 h followed by the addition of synthetic compounds and incubated further for 24 h. Plates were sealed with self-adhesive microplate sealers (TopSeal-A, PerkinElmer) to allow air diffusion and to prevent condensation. Biofilms adhered on polystyrene substratum were quantified by crystal violet staining as described previously. The experiment was performed in triplicate.
Figure 4 Disruption of established biofilms of S. aureus after 24 h treatment with 1× to 8× MIC concentrations of compounds 13d, 16b, 19a, 19b. The positive control represents the pre-established biofilms without any compounds. Error bars indicate the standard error of the mean (SEM) of three independent experiments.

[3] = test system: Bacillus subtilis strain BS23; test: Membrane integrity study, epifluorescence microscopy (atpA-GFP); assay type: cell-based; conditions: 50 μM, 45 min
Protocol: The mechanism of action of compounds 16b, 19a, and […] was further studied using Bacillus subtilis strain BS23, which contains a fusion of green fluorescence protein (GFP) to the α-subunit of the membrane-localized ATP synthase. In the assay, if the compounds damage the membrane, the green fluorescence will change from a uniform distribution to a clustered distribution. Epifluorescence microscopy was used to image the changes in the cells.
Bacillus subtilis BS23 (atpA-GFP) was grown in LB (10 g/L Tryptone, 5 g/L Yeast Extract, 5 g/L NaCl) supplemented with 0.5% (w/v) xylose at 37 °C, to an OD600 of 0.3 and then treated with 50 μM of the AMP mimics, 10 μg/mL of colistin or 0.25% (v/v) DMSO (vehicle control). The cells were grown for a further 45 min before being examined by epifluorescence microscopy. Micrographs were background subtracted, merged, and aligned in images.
Figure 3 Epifluorescence microscopy images showing membrane integrity of B. subtilis strain BS23 treated with colistin (10 µg/mL) and compounds 16b, 19a, and 19b (50 µM).

E. coli biofilms = test: Disruption of established biofilm, crystal violet staining; assay type: cell-based; conditions: 24 h treatment; for disruption of established E. coli biofilm (in words): 1× to 8× MIC; for disruption of E. coli biofilm mass: 2× MIC (62.4 µM)
Protocol: as §5, §6
Figure 5 Disruption of established biofilm of E. coli after 24 h treatment with 1× to 8× MIC concentrations of compounds 13d, 16b, 19a, and 19b. The negative control represents pre-established biofilms without any compounds. Error bars indicate the standard error of the mean (SEM) of three independent experiments.

S. aureus [4] = test: Minimum inhibitory concentration, broth microdilution (CLSI); assay type: cell-based, Staphylococcus aureus; conditions: for MIC: Table 2, lysine derivative versus parent, read-out: MIC S. aureus; for MIC90: broth microdilution in MHB, 18–24 h
Protocol: as §1

E. coli [5] = test system: E. coli; parameters: method as in PMID 30070287; conditions: cited from earlier work
MRC-5 human fibroblasts [6] = test system: MRC-5 human fibroblasts; parameters: method as in PMID 30070287; conditions: cited from earlier work
S. aureus [7] = test system: S. aureus; parameters: method as in PMID 30070287; conditions: cited from earlier work
S. aureus 38 = test: Cytoplasmic membrane permeability (depolarization) assay with DiSC3(5); assay type: cell-based; conditions: 2× MIC
Protocol: as §2, §3, §4

Compound	IC50 (MRC-5 human fibroblasts [1]) [µM]	MIC (E. coli [2]) [µM]	MIC90 (E. coli [2]) [µM]	cytoplasmic membrane depolarization (DiSC3(5) release) (E. coli K12)	disruption of established S. aureus biofilm (S. aureus biofilms; 2× MIC (31.2 µM))	disruption of established S. aureus biofilm (S. aureus biofilms; 8× MIC (125 µM)) [%]	membrane damage (clustering of GFP fluorescence) [3]	disruption of established E. coli biofilm (in words) (E. coli biofilms)	MIC (S. aureus [4]; Staphylococcus aureus) [µM]	MIC90 (S. aureus [4]; Staphylococcus aureus) [µM]	disruption of established S. aureus biofilm (S. aureus biofilms; 4× MIC (15.6 µM)) [%]	cytoplasmic membrane depolarization (DiSC3(5) release) (S. aureus 38)	disruption of E. coli biofilm mass (E. coli biofilms)	other results
NCCCC[C@H](N)C(=O)NCCNC(=O)[C@H](Cc1c[nH]c2ccccc12)NC(=O)c1cc(Br)ccc1NC(=O)c1ccc2ccccc2c1 [Compound 19a, N-(4-bromo-2-(((S)-1-((2-((S)-2,6-diaminohexanamido)ethyl)amino)-3-(1H-indol-3-yl)-1-oxopropan-2-yl)carbamoyl)phenyl)-2-naphthamide]	83.9	15.6 (≈ 11.3 µg/mL)	15.6 (≈ 11.3 µg/mL)	greater membrane disruption in E. coli than in S. aureus	over 60%	~99	caused membrane damage	not effective	15.6 (≈ 11.3 µg/mL)	15.6 (≈ 11.3 µg/mL)				improvement in antibacterial activity against E. coli compared to the parent compound (E. coli [2]; versus parent 12a, 12j): > 16 fold
NCCNC(=O)[C@H](Cc1c[nH]c2ccccc12)NC(=O)c1cc(Br)ccc1NC(=O)c1ccc2ccccc2c1 [Compound 12a]														MIC E. coli (E. coli [5]; Table 2, parent compound): > 125 µM; MIC90 E. coli (E. coli [5]; value of earlier paper): > 125 µM; IC50 (MRC-5 human fibroblasts [6]): < 20 µM; MIC S. aureus (S. aureus [7]; Table 2, parent compound): 3.9 µM (≈ 2.33 µg/mL); MIC90 S. aureus (S. aureus [7]; value of earlier paper): 3.9 µM (≈ 2.33 µg/mL)
NCCNC(=O)[C@H](Cc1c[nH]c2ccccc12)NC(=O)c1cc(-c2ccc3ccccc3c2)ccc1N [Compound 16b, (S)-2-amino-N-(1-((2-aminoethyl)amino)-3-(1H-indol-3-yl)-1-oxopropan-2-yl)-5-(naphthalen-2-yl)benzamide]	24.6		31.2 (≈ 15.3 µg/mL)				caused membrane damage	not effective		3.9 (≈ 1.92 µg/mL)	93			
COc1cc2ccccc2cc1C(=O)Nc1ccc(Br)cc1C(=O)N[C@@H](Cc1c[nH]c2ccccc12)C(=O)NCCCN [Compound 13d, (S)-N-(2-((1-((3-aminopropyl)amino)-3-(1H-indol-3-yl)-1-oxopropan-2-yl)carbamoyl)-4-bromophenyl)-3-methoxy-2-naphthamide]			62.5 (≈ 40.2 µg/mL)	relatively inactive				significant disruption		3.9 (≈ 2.51 µg/mL)	75	relatively inactive	59%	disruption of established S. aureus biofilm (S. aureus biofilms; 8× MIC (31.2 µM)): 99%
NCCCC[C@H](N)C(=O)NCCNC(=O)[C@H](Cc1c[nH]c2ccccc12)NC(=O)c1cc(Br)ccc1NC(=O)c1cccc(-c2ccccc2)c1 [Compound 19b, N-(4-bromo-2-(((S)-1-((2-((S)-2,6-diaminohexanamido)ethyl)amino)-3-(1H-indol-3-yl)-1-oxopropan-2-yl)carbamoyl)phenyl)-[1,1′-biphenyl]-3-carboxamide]	164	15.6 (≈ 11.7 µg/mL)	15.6 (≈ 11.7 µg/mL)		over 60%	~99	caused membrane damage	significant disruption	15.6 (≈ 11.7 µg/mL)	15.6 (≈ 11.7 µg/mL)		reversed trend	little effect	therapeutic window: IC50 to human cells over MIC90 (MRC-5 human fibroblasts [1]; IC50 MRC-5 versus MIC90 for either S. aureus or E. coli): over 10 times; MIC90 (S. aureus [4]): 15.6 µM (≈ 11.7 µg/mL)
